{"source": "patent US20040248871A1", "about": "“Use of lysyl oxidase inhibitors for cell culture and tissue engineering” (priority 2001, published 2004)", "key": {"Lysyl oxidase": {"test_system": "Lysyl oxidase", "test": "Lysyl oxidase activity assay with tritiated elastin substrate on culture media of chicken embryo chondrocytes", "assay_type": "biochemical", "description": "(§1) The Lysyl oxidase activity was assayed with 300,000 dpm of labelled elastin on the Lysine, substrate of the enzyme (Shackelton and Hulmes Anal. Biochem. (1990) 185: 359-362). The determination of the presence of Lysyl oxidases in the cultures of chondrocytes is carried out according to the standard methods of immunodecoration of the supports onto which the bands separated from the proteins extracted from the corresponding culture media or from the cell lawns have been transferred.\nLysyl oxidase activities (inhibited by βAPN and assayed by the production of tritiated water) are secreted in the culture media. The specific activity recorded in the media is stronger on the 7th day of culture than on the 13th day. The extracellular matrix being richer in natural collagenic substrates of the Lysyl oxidase activity on the 13th day of culture, it would thus retain the enzyme in the cell lawn."}, "[1]": {"test_system": "standard purified aortic LO", "test": "Lysyl oxidase activity assay with tritiated elastin substrate on standard purified aortic LO", "assay_type": "biochemical", "conditions": "Experiment 2, substrate no. 2, standard purified aortic LO", "description": "as §1"}, "[2]": {"test_system": "LOX, LOXL1 expression by chondrocytes", "test": "Immunodecoration with anti LOX, LOXL1 antibodies of extracts of chondrocyte cell lawns and culture medium", "assay_type": "cell-based, chicken", "conditions": "6th or 14th day of culture", "description": "as §1\nThe day before the samples are taken, the cell lawn is washed three times with medium without serum. The medium is then changed for 24 hours with complete medium without serum.\nOn the 6th or 14th day of culture the media are sampled and precipitated in a standard fashion with TCA 10% final/4° C./[…]. The centrifugation pellets are rinsed with acetone then solubilized in a 50 μl electrophoresis buffer. The rinsed cell lawns are lysed 2 hours/4° C. (300 μl/P35) in the mixture 8M urea, 0.5% Nonidet, 16 mM disodium phosphate pH 8 and protease inhibitors. […]\nAfter separation by SDS PAGE and transfer by Western Blot, the protein bands are analyzed by immunodecoration using polyclonal anti-LOX and anti-LOXL1 antibodies from rabbits, then a second anti-rabbit antibody marked with alkaline phosphatase before development with the reagent NBT/BCIP (Roche Diagnostic GmBH, Mannheim, Germany)."}, "[3]": {"test_system": "hypertrophic chondrocytes of chicken embryos", "test": "Reversibility of effects on bridgings of collagen IX chains in cell lawn of hypertrophic chondrocytes (fluorography)", "assay_type": "cell-based", "conditions": "washings with PBS then medium without βAPN", "description": "Chondrocytes of the cranial section of the sternum were inoculated at a high concentration (5 million cells per P35 Petri dish) then subjected to 24 hours of radio-labelling with proline 14C on the 7th, 14th and […] day of culture (respectively day 7, day 14 and day 21).\nβAPN was present (+) or absent. (−) for the entire duration of the culture, or present only during the first week ((+))."}, "[4]": {"test_system": "deep chondrocytes of the cotyloid ligament", "test": "Human cotyloid cartilage chondrocytes in 2D culture on plastic", "assay_type": "cell-based", "conditions": "hyaluronidase in extraction medium, two weeks, serum", "description": "b) The cultures of normal human chondrocytes originate from cartilages taken during hip prosthesis or ligamentoplasty surgery, then subjected to enzymatic digestion. These cartilage biopsies are considered as res nullus.\nThe chondrocytes extracted from the cotyloid ligament have been used for the two-dimensional culture on plastic in the presence of BAPN: the cultures obtained after enzymatic digestion of the cartilages in the presence or absence of hyaluronidase were compared (FIGS. 4 and 5).\nThe 24-hour radio-labellings with the 14C proline were carried out on the 2nd, 7th and 14th day of culture in the presence of serum and βAPN (day 2, day 7 and day 14 respectively). The pepsinated extracts of culture medium and cell lawn were subjected to electrophoresis then fluorography.\nThe superficial areas (even numbers) and deep areas (odd numbers) of the cotyloid cartilage were separated before being subjected to enzymatic digestion in the presence or absence of hyaluronidase."}, "[5]": {"test_system": "normal human chondrocytes", "test": "Normal human chondrocytes in 3D culture in collagen-GAG-chitosan sponge (immunofluorescence, histology)", "assay_type": "cell-based", "conditions": "3D culture in sponge, three months", "description": "The chondrocytes obtained after ligamentoplasty have been used for the three-dimensional culture in collagen-GAG-chitosan sponge (Collombel et al. 1987)* in the presence or absence of BAPN (FIGS. 7 and 8). * Collombel C., Damour O., Gagneu C., Poinsignon F., Echinard C., Marichy J.: Peau artificielle et son procédé de fabrication. French Patent No. 87-08752 (15th Jun. 1987), European Patent No. 88-420194.8 (14th Jun. 1988).\nNevertheless, human chondrocytes dedifferentiated in terms of the period of culture necessary for their multiplication in culture on plastic, can advantageously be placed in three-dimensional (3D) culture in the presence of βAPN. The placing in 3D culture not being sufficient, in itself, to ensure a return to the cartilage phenotype lost during the 2-dimensional culture in the presence of serum, as was described for 3D cultures in agarose.\n3 D culture in sponges of collagen-GAG-chitosan in the presence of serum and βAPN of normal human chondrocytes. The chondrocytes were previously multiplied, and dedifferentiated, in 2D culture on plastic."}, "keratinocytes": {"test_system": "keratinocytes", "test": "Keratinocytes cultured in monolayer: cell count and MTT viability test", "assay_type": "cell-based, human", "description": "The support of the reconstructed skin model is constituted by a dermal substrate (DS) with a base of collagen-glycosaminoglycan cross-linked by chitosan according to the technique published by Duplan-Perrat et al (J Invest Dermatol 2000 114:365). Fibroblasts are inoculated the inside of the DS in order to obtain an equivalent dermis. The reconstituted skin (RS) is obtained by inoculating the keratinocytes after 15 days (day 15) of culture in equivalent dermis. The dermal fibroblasts are obtained from explants of human prepuces after dermal-epidermal separation and cultured in monolayer in DMEM medium (Sigma) supplemented by 10% fœtal calf serum, 4 mM L-glutamine, EGF (Austral Biologic) at 10 ng/ml, penicillin at 100 UI/ml, gentamicin at 100 μg/ml and amphotericin B at 1 μg/ml. The keratinocytes are from a human skin biopsy sample after dermal-epidermal separation by trypsination. The cells are inoculated nutritive layers (irradiated fibroblasts) and cultured in DMEM and HAM F12 at 30% supplemented with fœetal calf serum at 10%, EGF at 10 ng/ml, hydrocortisone at 1.6 ng/ml, umulin at 0.12 UI/ml, choleratoxin at 0.1 nM, triiodothyronine at 0.2 μM, adenine at 24 μg/ml, 4 mM L-Glutamine, penicillin at 100 UI/ml, gentamicin at 100 μg/ml and amphotericin B at 1 μg/ml.\nIn fact, the number of these cells is reduced by approximately 50% compared to the control when they are cultured in the presence of 600 μg/ml of βAPN. […] The results of the MTT viability test confirm those of the cell count. […] It must be emphasized that βAPN at 200 μg/ml can optionally cause an increase in cell activity (proliferation and viability) on the fibroblasts inoculated at a low density, and on the fibroblasts and the keratinocytes inoculated at a high density."}}, "note": "Values joined by “and” are separate entries in the source; they are usually repeats but may differ in a detail not shown here. Equal entries are not always repeated."}
{"compound": "N#CCCN", "note": "[βAPN, β-aminopropionitrile]", "values": [{"measurement": "dpm + βAPN (Lysyl oxidase activity assay)", "setting": "Lysyl oxidase; Experiment 1, substrate no. 1, culture − FCS, + cys, Day 3, caudal chondrocytes, 15% medium P35", "value": "674 dpm and 718 dpm"}, {"measurement": "dpm + βAPN (Lysyl oxidase activity assay)", "setting": "Lysyl oxidase; Experiment 2, substrate no. 2, culture + FCS, − cys, Day 7, caudal chondrocytes, 25% medium P35", "value": "5296 dpm and 6210 dpm"}, {"measurement": "dpm + βAPN (Lysyl oxidase activity assay)", "setting": "Lysyl oxidase; Experiment 2, substrate no. 2, culture + FCS, − cys, Day 7, cranial chondrocytes, 100% medium P35", "value": "5800 dpm and 6536 dpm"}, {"measurement": "dpm + βAPN (Lysyl oxidase activity assay)", "setting": "Lysyl oxidase; Experiment 2, substrate no. 2, culture + FCS, − cys, Day 13, caudal chondrocytes, 75% medium P35", "value": "4344 dpm and 4702 dpm"}, {"measurement": "dpm + βAPN (Lysyl oxidase activity assay)", "setting": "Lysyl oxidase; Experiment 2, substrate no. 2, culture + FCS, − cys, Day 13, cranial chondrocytes, 100% medium P35", "value": "4580 dpm and 4618 dpm"}, {"measurement": "dpm + βAPN (Lysyl oxidase activity assay)", "setting": "[1]", "value": "4340 dpm and 4762 dpm"}, {"measurement": "expression of Lysyl oxidase molecules (LOX, LOXL1)", "setting": "[2]", "value": "does not modify the expression of Lysyl oxidase molecules"}, {"measurement": "reversibility of the modifications in the bridgings between chains of collagen IX after elimination of βAPN", "setting": "[3]", "value": "≤ 6", "unit": "days"}, {"measurement": "preservation of morphology and phenotype (matrix of cartilaginous type, without collagen I)", "setting": "[4]", "value": "preserving their morphology and their phenotype"}, {"measurement": "intensity of marking of the collagen I", "setting": "[5]", "value": "strong decrease"}, {"measurement": "intensity of marking of the collagen II and of the aggrecan (cartilage markers)", "setting": "[5]", "value": "clear increase"}, {"measurement": "reduction of proliferation of the keratinocytes", "setting": "keratinocytes; 200 μg/ml", "value": "approximately 10%"}, {"measurement": "effect on the viability and the multiplication", "setting": "keratinocytes; 200 μg/ml, isolated cultures", "value": "little effect"}, {"measurement": "reduction of the number of cells compared to the control", "setting": "keratinocytes; 600 μg/ml", "value": "approximately 50%"}, {"measurement": "concentration with inhibiting effect on proliferation", "setting": "keratinocytes; cell count and MTT", "value": "greater than 500 μg/ml"}, {"measurement": "toxic effect on cells at confluence", "setting": "keratinocytes; up to 800 μg/ml", "value": "no toxic effect"}]}
